Data as given in the NIST ThermoML archive (doi:10.1021/je900998f).
Numbers after ± are expanded uncertainties.

Conditions: Liquid; for mass density / viscosity: 298.15 K; for mass density: 101.33 kPa, Vibrating tube method

Question: Which mass density does the source give for CCO [ethanol] here?
Answer: 785.46 ± 0.12 kg/m3

Question: What about the viscosity (Capillary tube (Ostwald / Ubbelohde) method) of the same compound?
Answer: 1.082 ± 0.073 mPa·s

Question: What about the “vapor or sublimation pressure” value (351.44 K, Ebulliometric method (Recirculating still)) of the same compound?
Answer: 101.33 ± 0.1 kPa

Question: With CCOS(=O)(=O)[O-].CC[n+]1cccc(C)c1 [1-ethyl-3-methylpyridinium ethylsulfate] as the compound, how does the mass density read?
Answer: 1222.26 ± 0.42 kg/m3

Question: And the viscosity?
Answer: 161.4 ± 8.4 mPa·s
